Test results as given in PubChem BioAssay AID2060336 (Molecular Pharmacology Branch, DTP, NCI, 2025).

Tested on: 958767-090-R-J1-PDC spheroid growth
Assay: Anticancer human tumor 958767-090-R-J1-PDC patient-derived head and neck squamous carcinoma cell line growth inhibition [IpAb]
Details: spheroids with HUVEC and MSC; for IC50: curve of first compound; for viability, T/C: stronger effect = lower value
In short: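 Combinations with ipatasertib or abemaciclib were tested on tumour spheroids holding HUVEC (25%) and MSC (15%) alongside 60% malignant cells. Top concentration was at or near clinical Cmax (10 microM if undefined), descending in half-log steps.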
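Also: spheroids exposed to agents for 7 days.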
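For viability, T/C in this document: 100% = DMSO vehicle control wells.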

Cn1ncnc1[C@H]1c2n[nH]c(=O)c3cc(F)cc(c23)N[C@@H]1c1ccc(F)cc1 + CC(C)NCC(C(=O)N1CCN(c2ncnc3c2C(C)CC3O)CC1)c1ccc(Cl)cc1
IC50 (second compound 0.1 µM): > 100 nM
IC50 (second compound 0.316 µM): > 100 nM
IC50 (second compound 1 µM): > 100 nM
IC50 (second compound 3.16 µM): > 100 nM
IC50 (second compound 10 µM): 51.3 nM
viability, T/C (second compound 0.1 µM, first compound 0.000316 µM): 91.5%
viability, T/C (second compound 0.1 µM, first compound 0.001 µM): 87.8%
viability, T/C (second compound 0.1 µM, first compound 0.00316 µM): 91.2%
viability, T/C (second compound 0.1 µM, first compound 0.01 µM): 83.7%
viability, T/C (second compound 0.1 µM, first compound 0.0316 µM): 87.4%
viability, T/C (second compound 0.1 µM, first compound 0.1 µM): 73%
viability, T/C (second compound 0.316 µM, first compound 0.000316 µM): 70%
viability, T/C (second compound 0.316 µM, first compound 0.001 µM): 77.4%
viability, T/C (second compound 0.316 µM, first compound 0.00316 µM): 74.7%
viability, T/C (second compound 0.316 µM, first compound 0.01 µM): 86.8%
viability, T/C (second compound 0.316 µM, first compound 0.0316 µM): 77.6%
viability, T/C (second compound 0.316 µM, first compound 0.1 µM): 65.8%
viability, T/C (second compound 1 µM, first compound 0.000316 µM): 69.5%
viability, T/C (second compound 1 µM, first compound 0.001 µM): 63.9%
viability, T/C (second compound 1 µM, first compound 0.00316 µM): 72.2%
viability, T/C (second compound 1 µM, first compound 0.01 µM): 74.2%
viability, T/C (second compound 1 µM, first compound 0.0316 µM): 62.4%
viability, T/C (second compound 1 µM, first compound 0.1 µM): 56.4%
viability, T/C (second compound 3.16 µM, first compound 0.000316 µM): 65%
viability, T/C (second compound 3.16 µM, first compound 0.001 µM): 52.6%
viability, T/C (second compound 3.16 µM, first compound 0.00316 µM): 58.8%
viability, T/C (second compound 3.16 µM, first compound 0.01 µM): 70.2%
viability, T/C (second compound 3.16 µM, first compound 0.0316 µM): 62.4%
viability, T/C (second compound 3.16 µM, first compound 0.1 µM): 59.3%
viability, T/C (second compound 10 µM, first compound 0.000316 µM): 63.3%
viability, T/C (second compound 10 µM, first compound 0.001 µM): 55.3%
viability, T/C (second compound 10 µM, first compound 0.00316 µM): 58.1%
viability, T/C (second compound 10 µM, first compound 0.01 µM): 58.4%
viability, T/C (second compound 10 µM, first compound 0.0316 µM): 56%
viability, T/C (second compound 10 µM, first compound 0.1 µM): 42%
